Reference: PubChem BioAssay (NCI)
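Five concentrations, 48 hours, 96-well plates. GI50 marks 50% less growth. TGI denotes the concentration required for complete inhibition of growth.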

Tests used:
Assay in all cases: NCI tumour cell line growth inhibition, 48 h
DLD-1 colon = system: DLD-1 colon
KM20L2 colon = system: KM20L2 colon
M19-MEL melanoma = system: M19-MEL melanoma
RXF-631 renal = system: RXF-631 renal
XF 498 CNS = system: XF 498 CNS
MDA-N = system: MDA-N
DMS 114 small cell lung = system: DMS 114 small cell lung
DMS 273 small cell lung = system: DMS 273 small cell lung
HOP-18 NSCLC = system: HOP-18 NSCLC

| Structure (SMILES) | TGI (DLD-1 colon) [µM] | TGI (KM20L2 colon) [µM] | TGI (M19-MEL melanoma) [µM] | TGI (RXF-631 renal) [µM] | TGI (XF 498 CNS) [µM] | TGI (MDA-N) [µM] | TGI (DMS 114 small cell lung) [µM] | TGI (DMS 273 small cell lung) [µM] | TGI (HOP-18 NSCLC) [µM] | GI50 (MDA-N) [µM] |
| --- | --- | --- | --- | --- | --- | --- | --- | --- | --- | --- |
| COc1ccc2nc3ccccc3c(NCCN(CCCl)CCCl)c2c1 | 4.04 | 2.4 | 3.2 | 4.71 | 1.89 | – | – | – | – | – |
| CC(C)C1=CC2=C(C(=O)C1=O)C13CCCC(C)(C)C1CC2OC3=O (stereo unspecified) | – | – | – | – | – | 37.2 | – | – | – | – |
| N#CCCN(c1ccc(C=O)cc1)S(=O)(=O)c1ccccc1 | – | > 100 | > 100 | – | > 100 | – | > 100 | > 100 | – | – |
| CSC1=Nc2ccccc2N=C(c2ccccc2)C1 | > 100 | > 100 | > 100 | > 100 | > 100 | – | 65.5 | > 100 | > 100 | – |
| O=C(CC(=O)c1cccc([N+](=O)[O-])c1)C(=O)Nc1ccccc1 | > 100 | > 100 | > 100 | > 100 | > 100 | – | > 100 | > 100 | > 100 | – |
| CCN(CC)C(=O)CC12CCCCC1=Nc1ccccc12 (stereo unspecified) | > 100 | > 100 | > 100 | > 100 | > 100 | – | – | > 100 | > 100 | – |
| c1ccc(CC(Nc2cccnc2)c2ccccc2)cc1 (stereo unspecified) | – | – | – | – | – | 47.8 | – | – | – | – |
| CC[As](CC)SCC1OC(OC(C)=O)C(OC(C)=O)C(OC(C)=O)C1OC(C)=O (stereo unspecified) | 30.9 | 32.7 | 27.5 | 6.64 | 32 | – | 17.6 | 29.4 | 29.6 | – |
| O=C(CC1(O)C(=O)Nc2ccccc21)c1ccccc1O (stereo unspecified) | > 100 | > 100 | > 100 | > 100 | > 100 | – | > 100 | > 100 | – | – |
| CCCCCCCCCC[C@H](O)[C@H]1CC[C@@H]([C@@H](O)CC[C@H](O)[C@@H]2CCC(CCCCCCC[C@@H](O)CC3=C[C@H](C)OC3=O)O2)O1 (stereo partly specified) | – | – | – | – | – | 16 | – | – | – | 2.1 |
| CN(C)c1ccc(/C=c2/c3cc(O)ccc3n3c2cc(-c2ccccc2)[n+]3C)cc1 | – | – | – | – | – | 1.96 | – | – | – | – |
| CC(=O)O[C@@H]1CC[C@@]2(C)C(=O)C34C[C@@]5(C)C([C@@H](C)CCCC(C)C)CCC5(C)[C@](O)(O3)C(=O)[C@H]4C2C1(C)C (stereo partly specified) | 34.7 | 32.5 | 27.3 | 34.2 | – | – | 33.6 | 27.2 | 29.5 | – |
| Clc1ccccc1C1SCc2nc3ccccc3n21 (stereo unspecified) | > 100 | – | > 100 | – | 87.2 | – | – | – | – | – |
| COc1cc2c(cc1-c1coc3cc(O)ccc3c1=O)OCO2 | – | – | – | – | – | > 100 | – | – | – | – |
| CC1=CC[C@@H](C(C)(C)O)C[C@@H]1O | > 5000 | > 5000 | > 5000 | > 5000 | > 5000 | – | > 5000 | – | – | – |
| CC1C(O)=C(O)c2ccccc2N1O (stereo unspecified) | > 100 | > 100 | > 100 | > 100 | > 100 | – | – | > 100 | > 100 | – |
| C=C(Br)COc1ccc2c(C)cc(=O)oc2c1 | – | – | – | – | – | > 100 | – | – | – | – |
| COC(=O)C1=CC(=O)[C@@H]2CCCC[C@H]12 | > 100 | > 100 | > 100 | > 100 | – | – | > 100 | > 100 | > 100 | – |
| N#Cc1cccc(C2C(=O)c3ccc(C(=O)c4ccc5c(c4)C(=O)N(c4ccc(Oc6ccc(N7C(=O)c8ccc(C(=O)c9ccc%10c(c9)C(=O)N(c9cccc(C#N)c9)C%10=O)cc8C7=O)cc6)cc4)C5=O)cc3C2=O)c1 (stereo unspecified) | > 100 | > 100 | > 100 | > 100 | > 100 | – | > 100 | > 100 | – | – |
| N#C/C(=C\c1ccc[nH]1)C(=O)c1ccccc1 | > 100 | > 100 | > 100 | > 100 | – | – | > 100 | > 100 | > 100 | – |
| Cc1c(Cl)c(C)c(Cl)c(O)c1Cl | – | – | – | – | – | 99.2 | – | – | – | – |
| Fc1ccc(N=C2C=CC(=Nc3ccc(F)cc3)c3ccccc32)cc1 | > 100 | > 100 | > 100 | – | > 100 | – | – | > 100 | > 100 | – |
